Test results from paper PMC12546632, “The role of cytochrome bc1 inhibitors in future tuberculosis treatment regimens” (Nature Communications, 2025).
Several values for one entry are separate records, joined by “and”; a condition that tells them apart may be missing. Equal entries are not always repeated.

Test system: JNJ-2901- and JNJ-4052-resistant M. tuberculosis ΔcydAB strains (QcrA/QcrB mutants)
Format: cell-based, Mycobacterium tuberculosis

NNC(=O)c1ccncc1 [Isoniazid, isoniazid]
MIC50 fold change from parental strain: 1 fold and 0.5 fold
